According to patent US9394335B2, “Esters of glycyrrhetinic acid, preparation and cosmetic applications thereof” (GIULIANI S.P.A., priority 2012, dated 2016):

Legend:
[1] = test system: NCTC 2544 human keratinocytes; assay: MTT assay, cell viability; type: cell-based; details: for tolerability by NCTC2544 human keratinocytes: 2.5-5 and 10 μM
Description: The data represent mean values ±standard deviation. Each treatment was carried out in duplicate.
The data are expressed as mean values ±standard deviation. Each treatment was carried out in duplicate.
The MTT test is useful to assess in vitro cell viability following the treatment with diluted compounds. The MTT method has been used as an indirect measure of cell viability.
The effects on NCTC 2544 cell proliferation from compounds 18-β and POLY-GLY-S at different concentrations have been examined.
The cells have been plated at low densities and treated with different concentrations of active compounds and negative control, in culture medium EMEM, without phenol red supplemented at 10% with FCS, 2 mM L-glutamine, 1% NEAA solution and 1% antibiotic mixture for 24, 48 and 72 hours and cell viability has been assessed by the MTT assay. The cell viability percentage compared to control (FIGS. 1-2) has been calculated after 24, 48 and 72 hours of incubation. […] The same results have been obtained after a prolonged cells exposure (48-72 hours) to tested compounds for all the considered concentrations.

[2] = test system: expression of the TNF-α gene in NCTC 2544 human keratinocytes; assay: Inflammation assessment assay: expression of the TNF-α gene by RT-PCR in LPS-treated cells; type: cell-based; details: for inhibition of the expression of the TNF-α gene / anti-inflammatory effect (inhibiting the expression of the TNF-α gene): LPS 5 μg/ml; for inhibition of the expression of the TNF-α gene: 48 hrs of treatment, compared to cells treated only with LPS; for anti-inflammatory effect (inhibiting the expression of the TNF-α gene): 2.5-5-10 μM, after 48 hrs of treatment
Description: The NCTC 2544 cells were treated at 37° C. for 48 hours, at 5% CO2, with: basal culture medium, containing 2.5% fetal bovine serum (negative control), with: basal culture medium, containing 2.5% fetal bovine serum supplemented with LPS (5 μg/ml) (positive control), with: basal culture medium, containing 2.5% fetal bovine serum supplemented with LPS (5 μg/ml) and 18-β-glycyrrhetinic acid (18-β) at a concentration of 2.5-5-10 μM, with: basal culture medium, containing 2.5% fetal bovine serum supplemented with LPS (5 μg/ml), and POLY-GLY-S at a concentration of 2.5-5-10 μM. The results are expressed as a percentage of inflammation as compared to cells treated with LPS. The values represent the mean values of 2 experiments in duplicate.
The anti-inflammatory effects of ester having formula (Ia) of Example 1 (referred to as ‘POLY-GLY-S’ for shortness of description) have been investigated in an in vitro inflammation model, on NCTC2544 human keratinocytes and using lipopolysaccharide (LPS) from E. coli as mediator of inflammatory state. The effect of derivative in the models used has been compared to that of 18-β-glycyrrhetic acid (referred to as ‘18-β’ for shortness of description).
Furthermore, the in vitro inflammatory potential of POLY-GLY-S towards a positive control (cells treated with 5 μg/ml lipopolysaccharide) was determined. The data obtained have been compared to those obtained, in the same experimental model, using 18-β.
Inflammation Assessment Assay
The expression of the TNF-α gene on NCTC 2544 cells was assessed by RT-PCR.
The gene expression analysis implies four steps: • 1. Cell treatment with active compounds for 48 hrs; • 2. RNA extraction; • 3. cDNA reverse transcription; • 4. quantitative […].
In experimental conditions, in connection with the results obtained in the previous MIT assay, POLY-GLY-S and 18-β have been tested at a concentration of 20 μM (final concentration in the culture medium). Both positive control and negative control have been tested.
When the cells (NCTC 2544 human keratinocytes) had reached about 80% confluence, they were removed with trypsin/EDTA and seeded at a density of 1×10^6 cells/ml in 12-well plates and then incubated at 37° C., 5% CO2 (24 h).
When the cells had reached about 80% confluence, the complete medium was removed; cells were washed with PBS 1× and incubated in EMEN (EBSS) with 2.5% FBS, supplemented with 2 mM L-glutamine, 1% NEAA solution and 1% antibiotic mixture at 37° C., 5% CO2 for at least 4 hrs.
POLY-GLY-S and 18-β were dissolved in EMEN supplemented with 2.5% FBS, 2 mM L-glutamine, 1% NEAA solution and 1% penicillin (10,000 U/ml)/streptomycin (10,000 μg/ml) mixture.
Controls only containing culture medium (negative control) and culture medium plus LPS (5 μg/ml) (positive control) have been included in each plate.
Cells were exposed to increasing concentrations of compounds to be tested, i.e. 2.5-5-10 μM.
To each well LPS at a concentration of 5 μg/ml was added. Each sample was tested in duplicate.
Then cells were incubated at 37° C., 5% CO2 for 24 hrs.
Total RNA was extracted from cells using a single homogeneous solution Tri-reagent (Sigma Aldrich) to isolate RNA following manufacturer's instructions.
The extracted and quantified total RNA was amplified using the “High-Capacity cDNA Reverse transcription Kit” (Applied Biosystems).
RT-PCR was carried out using TaqMan linear probes (Applied Biosystems). These probes are the most used and published detection system for qPCR applications. In stock probes and primer were selected based on previous specific bibliographic studies.
The relative quantification method was used where the gene relative concentration of interest (target) is compared with unknown samples to a calibrator or control sample (untreated cells).
10 μl TaqMan 2× Gene Expression master Mix and 1 μl 20× TaqMan Gene Expression were added to cDNA. […]

[3] = cited from earlier work
[4] = 24 hours of incubation, all tested concentrations (18-β 2.5-80 μM, ester (Ia) 0.625-80 μM)
[5] = prolonged exposure 48-72 hours, all considered concentrations

| Compound | tolerability by NCTC2544 human keratinocytes [1] | cytotoxic effect on NCTC2544 compared to control (MTT, % viability) [1, 4] | cytotoxic effect on NCTC2544 compared to control (MTT, % viability) [1, 5] | inhibition of the expression of the TNF-α gene ([2]; 2.5 μM) [%] | inhibition of the expression of the TNF-α gene ([2]; 5 μM) [%] | inhibition of the expression of the TNF-α gene ([2]; 10 μM) [%] | anti-inflammatory effect (inhibiting the expression of the TNF-α gene) [2] | reduction of the expression of the TNF-α gene ([2]; all the concentrations assayed, 48 hours of incubation (conclusions)) | solubility in ethanol ([3]; ethanol) | solubility in oils ([3]; oils) | solubility in water ([3]; water) |
| --- | --- | --- | --- | --- | --- | --- | --- | --- | --- | --- | --- |
| CC1(C)[C@@H](O)CC[C@]2(C)[C@H]3C(=O)C=C4[C@@H]5C[C@@](C)(C(=O)OCC(O)C(O)C(O)C(O)COCC(O)COCC(O)COCC(O)CO)CC[C@]5(C)CC[C@@]4(C)[C@]3(C)CC[C@@H]12 (stereo partly drawn) [POLY-GLY-S, glycyrrhetinic ester of polyglycerol-3-sorbitol] | well tolerated | none | same results | 43.99 | 40.71 | 54.36 | significantly effective | at least 50% | – | – | – |
| CC1(C)[C@@H](O)CC[C@]2(C)[C@H]3C(=O)C=C4[C@@H]5C[C@@](C)(C(=O)O)CC[C@]5(C)CC[C@@]4(C)[C@]3(C)CC[C@@H]12 [18-β, 18-Beta glycyrrhetinic acid, reference compound] | well tolerated | none | same results | – | – | – | no longer had anti-inflammatory effect | – | soluble | insoluble | insoluble |
